Reference: patent US9023789B2, “Amylin analogs and pharmaceutical compositions thereof” (Novo Nordisk A/S, priority 2012, dated 2015)
Converted amounts (≈) assume the structure as drawn. Read-outs that look alike come from different tables or passages of the source. Numbered stars: 1 amine (or outer) side, 2 acyl side, 3 side chain; on linkers, the order of the positions; unused ones are H or OH. Bridge positions count the residues as written; N and C are the ends. Side chains are listed from the residue outwards. Peptide text beside a SMILES is read from it. * marks the point of attachment. C20 diacid = O=C(O)CCCCCCCCCCCCCCCCCCC(=O)*; γGlu = O=C(O)[C@H](CCC(=O)[*:2])N[*:1]; AEEA = NCCOCCOCC(=O)O

Key:
[1] = ASSAY (IV) determination of solubility; format: physicochemical
Summary of the method: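 Polypeptide in water at […] mixed 1:1 with 100 mM buffers of pH 3.0-8.0 (glycylglycine pH 3-5, bistrispropane pH 6-8). Held 18 h at room temperature, then centrifuged; concentration remaining in solution measured by UPLC.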

rat calcitonin receptor = target: T1, rat calcitonin receptor (Rattus norvegicus, UniProt P32214); assay: ASSAY (VIII) binding to the rat calcitonin receptor; conditions: Table 7, read-out: rCTR bind IC50
T1 construct: expressed in transfected cells; host or cells: BHK tk'ts 13 (transient, FuGENE 6), membranes
T1 sequence (P32214 25-479 isoform P32214-2 limits assumed): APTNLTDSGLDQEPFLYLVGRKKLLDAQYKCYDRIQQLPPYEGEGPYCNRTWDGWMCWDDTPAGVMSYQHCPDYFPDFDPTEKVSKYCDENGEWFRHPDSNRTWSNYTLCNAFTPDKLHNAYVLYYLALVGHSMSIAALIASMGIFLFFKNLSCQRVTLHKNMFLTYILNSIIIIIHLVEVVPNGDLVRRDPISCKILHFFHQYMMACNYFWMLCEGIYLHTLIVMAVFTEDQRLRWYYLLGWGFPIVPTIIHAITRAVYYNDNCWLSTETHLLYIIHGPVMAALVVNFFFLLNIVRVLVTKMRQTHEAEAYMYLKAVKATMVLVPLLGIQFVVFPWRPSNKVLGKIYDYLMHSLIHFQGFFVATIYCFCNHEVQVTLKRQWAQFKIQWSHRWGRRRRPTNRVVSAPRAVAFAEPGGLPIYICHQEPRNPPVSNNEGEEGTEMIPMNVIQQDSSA
Summary of the method: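 Membranes were prepared from BHK tk′ts 13 cells transiently transfected with rat calcitonin receptor. Cells were grown in DMEM with 10% FBS and harvested approximately 48 hours after transfection.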

[2] = ASSAY (III) ThT fibrillation assay for physical stability; format: physicochemical
Summary of the method: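 Formulations with 1 μM ThT, pH adjusted as required, incubated at 37 °C with 960 rpm orbital shaking; fluorescence (ex 444/em 485 nm) read every 20 min. Fibrillation reported as mean ThT fluorescence ± SD of 4–8 replicates at time points; polypeptide concentration measured by reverse-phase HPLC before and after, post-centrifugation.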

[3] = bistrispropane buffer, pH 6.5, read-out: Solubility pH 6.5 Concentration
[4] = bistrispropane buffer, pH 7.5, read-out: Solubility pH 7.5 Concentration
[5] = bistrispropane buffer, pH 6.0, read-out: Solubility pH 6.0 Concentration
[6] = bistrispropane buffer, pH 7.0, read-out: Solubility pH 7.0 Concentration
[7] = bistrispropane buffer, pH 8.0, read-out: Solubility pH 8.0 Concentration
[8] = glycylglycine buffer, pH 3.0, read-out: Solubility pH 3.0 Concentration
[9] = glycylglycine buffer, pH 4.0, read-out: Solubility pH 4.0 Concentration
[10] = glycylglycine buffer, pH 5.0, read-out: Solubility pH 5.0 Concentration

Compound	solubility at 18 h [1, 3]	solubility at 18 h [1, 4]	solubility at 18 h [1, 5]	solubility at 18 h [1, 6]	solubility at 18 h [1, 7]	solubility at 18 h [1, 8]	solubility at 18 h [1, 9]	solubility at 18 h [1, 10]	IC50 (rat calcitonin receptor)	ThT pH 4.0 lag time (h) [2]
CC[C@H](C)[C@H](NC(=O)[C@H](C)NC(=O)CNC(=O)[C@H](Cc1ccccc1)NC(=O)[C@H](CC(N)=O)NC(=O)[C@@H]1CCCN1C(=O)[C@H](CO)NC(=O)[C@H](CO)NC(=O)[C@H](Cc1c[nH]cn1)NC(=O)[C@H](CCCNC(=N)N)NC(=O)[C@H](CC(C)C)NC(=O)[C@H](Cc1ccccc1)NC(=O)[C@H](CC(N)=O)NC(=O)[C@H](C)NC(=O)[C@H](CC(C)C)NC(=O)[C@H](CCCNC(=N)N)NC(=O)[C@H](CCC(N)=O)NC(=O)[C@@H](NC(=O)[C@H](C)NC(=O)[C@@H]1CSSC[C@H](NC(=O)[C@@H](N)CCCCNC(=O)COCCOCCNC(=O)CC[C@H](NC(=O)CCCCCCCCCCCCCCCCCCC(=O)O)C(=O)O)C(=O)N[C@@H](CC(N)=O)C(=O)N[C@@H]([C@@H](C)O)C(=O)N[C@@H](C)C(=O)N[C@@H]([C@@H](C)O)C(=O)N1)[C@@H](C)O)C(=O)N1CCC[C@H]1C(=O)N[C@@H](CO)C(=O)N1CCC[C@H]1C(=O)N[C@H](C(=O)N[C@@H](CC(N)=O)C(=O)N[C@H](C(=O)NCC(=O)N1CCC[C@H]1C(=O)N[C@@H](CC(N)=O)C(=O)N[C@H](C(=O)N[C@@H](Cc1ccc(O)cc1)C(N)=O)[C@@H](C)O)C(C)C)[C@@H](C)O [Example 56] (H-K([AEEA-γGlu-C20 diacid])CNTATCATQRLANFLRHSSPNFGAIPSPTNVGPNTY-NH2; disulfide 2-7 (inferred); N-terminus assumed)	≥ 200 µM	≥ 200 µM	≥ 200 µM	≥ 200 µM	147 µM (≈ 668 µg/mL)	≥ 200 µM	≥ 200 µM	≥ 200 µM	5.26 nM	22 h
CC[C@H](C)[C@H](NC(=O)[C@H](C)NC(=O)CNC(=O)[C@H](Cc1ccccc1)NC(=O)[C@H](CC(N)=O)NC(=O)[C@@H]1CCCN1C(=O)[C@H](CO)NC(=O)[C@H](CO)NC(=O)[C@H](Cc1c[nH]cn1)NC(=O)[C@H](CCCNC(=N)N)NC(=O)[C@H](CC(C)C)NC(=O)[C@H](Cc1ccccc1)NC(=O)[C@H](CC(N)=O)NC(=O)[C@H](C)NC(=O)[C@H](CC(C)C)NC(=O)[C@H](CCCNC(=N)N)NC(=O)[C@H](CCC(N)=O)NC(=O)[C@@H](NC(=O)[C@H](C)NC(=O)[C@@H]1CSSC[C@H](NC(=O)[C@@H](N)CCCCNC(=O)CC[C@H](NC(=O)CCCCCCCCCCCCCCCCCCC(=O)O)C(=O)O)C(=O)N[C@@H](CC(N)=O)C(=O)N[C@@H]([C@@H](C)O)C(=O)N[C@@H](C)C(=O)N[C@@H]([C@@H](C)O)C(=O)N1)[C@@H](C)O)C(=O)N1CCC[C@H]1C(=O)N[C@@H](CO)C(=O)N[C@@H](CO)C(=O)N[C@H](C(=O)N[C@@H](CC(N)=O)C(=O)N[C@H](C(=O)NCC(=O)N[C@@H](CO)C(=O)N[C@@H](CC(N)=O)C(=O)N[C@H](C(=O)N[C@@H](Cc1ccc(O)cc1)C(N)=O)[C@@H](C)O)C(C)C)[C@@H](C)O [Example 48]	≥ 200 µM	≥ 200 µM	≥ 200 µM	≥ 200 µM	≥ 200 µM	≥ 200 µM	≥ 200 µM	≥ 200 µM	112 nM	25 h

Continued, values first:

solubility at 18 h [1, 3]	solubility at 18 h [1, 4]	solubility at 18 h [1, 5]	solubility at 18 h [1, 6]	solubility at 18 h [1, 7]	solubility at 18 h [1, 8]	solubility at 18 h [1, 9]	solubility at 18 h [1, 10]	IC50 (rat calcitonin receptor)	ThT pH 4.0 lag time (h) [2]	Compound
≥ 200 µM	≥ 200 µM	≥ 200 µM	≥ 200 µM	≥ 200 µM	≥ 200 µM	≥ 200 µM	≥ 200 µM	29.5 nM	4 h	CC[C@H](C)[C@H](NC(=O)[C@H](C)NC(=O)CNC(=O)[C@H](Cc1ccccc1)NC(=O)[C@H](CC(N)=O)NC(=O)[C@@H]1CCCN1C(=O)[C@H](CO)NC(=O)[C@H](CO)NC(=O)[C@H](Cc1c[nH]cn1)NC(=O)[C@H](CCCNC(=N)N)NC(=O)[C@H](CC(C)C)NC(=O)[C@H](Cc1ccccc1)NC(=O)[C@H](CC(N)=O)NC(=O)[C@H](C)NC(=O)[C@H](CC(C)C)NC(=O)[C@H](CCCNC(=N)N)NC(=O)[C@H](CCC(N)=O)NC(=O)[C@@H](NC(=O)[C@H](C)NC(=O)[C@@H]1CSSC[C@H](NC(=O)[C@@H](N)CCCCNC(=O)COCCOCCNC(=O)CCCCCCCCCCCCCCCCCCC(=O)O)C(=O)N[C@@H](CC(N)=O)C(=O)N[C@@H]([C@@H](C)O)C(=O)N[C@@H](C)C(=O)N[C@@H]([C@@H](C)O)C(=O)N1)[C@@H](C)O)C(=O)N1CCC[C@H]1C(=O)N[C@@H](CO)C(=O)N[C@@H](CO)C(=O)N[C@H](C(=O)N[C@@H](CC(N)=O)C(=O)N[C@H](C(=O)NCC(=O)N[C@@H](Cc1c[nH]cn1)C(=O)N[C@@H](CC(N)=O)C(=O)N[C@H](C(=O)N[C@@H](Cc1ccc(O)cc1)C(N)=O)[C@@H](C)O)C(C)C)[C@@H](C)O [Example 91]
≥ 200 µM	≥ 200 µM	≥ 200 µM	≥ 200 µM	≥ 200 µM	≥ 200 µM	≥ 200 µM	≥ 200 µM	140 nM	12 h	CC[C@H](C)[C@H](NC(=O)[C@H](C)NC(=O)CNC(=O)[C@H](Cc1ccccc1)NC(=O)[C@H](CC(N)=O)NC(=O)[C@@H]1CCCN1C(=O)[C@H](CO)NC(=O)[C@H](CO)NC(=O)[C@H](Cc1c[nH]cn1)NC(=O)[C@H](CCCNC(=N)N)NC(=O)[C@H](CC(C)C)NC(=O)[C@H](Cc1ccccc1)NC(=O)[C@H](CCCNC(=N)N)NC(=O)[C@H](C)NC(=O)[C@H](CC(C)C)NC(=O)[C@H](CCCNC(=N)N)NC(=O)[C@H](CCC(N)=O)NC(=O)[C@@H](NC(=O)[C@H](C)NC(=O)[C@@H]1CSSC[C@H](NC(=O)[C@@H](N)CCCCNC(=O)CC[C@H](NC(=O)CCCCCCCCCCCCCCCCCCC(=O)O)C(=O)O)C(=O)N[C@@H](CC(N)=O)C(=O)N[C@@H]([C@@H](C)O)C(=O)N[C@@H](C)C(=O)N[C@@H]([C@@H](C)O)C(=O)N1)[C@@H](C)O)C(=O)N1CCC[C@H]1C(=O)N[C@@H](CO)C(=O)N[C@@H](CO)C(=O)N[C@H](C(=O)N[C@@H](CC(N)=O)C(=O)N[C@H](C(=O)NCC(=O)N[C@@H](CO)C(=O)N[C@@H](CC(N)=O)C(=O)N[C@H](C(=O)N[C@@H](Cc1ccc(O)cc1)C(N)=O)[C@@H](C)O)C(C)C)[C@@H](C)O [Example 83]
≥ 200 µM	≥ 200 µM	≥ 200 µM	≥ 200 µM	≥ 200 µM	≥ 200 µM	≥ 200 µM	≥ 200 µM	62.2 nM	12 h	CC[C@H](C)[C@H](NC(=O)[C@H](C)NC(=O)CNC(=O)[C@H](Cc1ccccc1)NC(=O)[C@H](CC(N)=O)NC(=O)[C@@H]1CCCN1C(=O)[C@H](CO)NC(=O)[C@H](CO)NC(=O)[C@H](Cc1c[nH]cn1)NC(=O)[C@H](CCCNC(=N)N)NC(=O)[C@H](CC(C)C)NC(=O)[C@H](Cc1ccccc1)NC(=O)[C@H](CC(N)=O)NC(=O)[C@H](C)NC(=O)[C@H](CC(C)C)NC(=O)[C@H](CCCNC(=N)N)NC(=O)[C@H](CCC(N)=O)NC(=O)[C@@H](NC(=O)[C@H](C)NC(=O)[C@@H]1CSSC[C@H](NC(=O)[C@@H](N)CCCCNC(=O)COCCOCCNC(=O)COCCOCCNC(=O)CC[C@H](NC(=O)CCCCCCCCCCCCCCCCCCC(=O)O)C(=O)O)C(=O)N[C@@H](CC(N)=O)C(=O)N[C@@H]([C@@H](C)O)C(=O)N[C@@H](C)C(=O)N[C@@H]([C@@H](C)O)C(=O)N1)[C@@H](C)O)C(=O)N1CCC[C@H]1C(=O)N[C@@H](CO)C(=O)N[C@@H](CO)C(=O)N[C@H](C(=O)N1CCC[C@H]1C(=O)N[C@H](C(=O)NCC(=O)N[C@@H](CO)C(=O)N[C@@H](CC(N)=O)C(=O)N[C@H](C(=O)N[C@@H](Cc1ccc(O)cc1)C(N)=O)[C@@H](C)O)C(C)C)[C@@H](C)O [Example 96]
